Measured values reported in ChEMBL document CHEMBL4043226, “Design, synthesis and biological evaluation of benzamide and phenyltetrazole derivatives with amide and urea linkers as BCRP inhibitors” (Bioorg Med Chem Lett, 2017).

Legend:
[1] = Resistance index, ratio of mitoxantrone IC50 for human H460/MX20 cells to mitoxantrone IC50 for human H460 cells at 10 uM (reference value: 28.66)
[2] = Resistance index, ratio of mitoxantrone IC50 for human H460/MX20 cells to mitoxantrone IC50 for human H460 cells at 3 uM (reference value: 28.66)
[3] = Resistance index, ratio of mitoxantrone IC50 for human H460/MX20 cells to mitoxantrone IC50 for human H460 cells at 1 uM (reference value: 28.66)
[4] = Cytotoxicity against human NCI-H460/MX20 cells after 72 hrs by MTT assay; format: cell-based; settings: NCI-H460/MX20, 72 h
NCI-H460 = test: Cytotoxicity against human H460 cells after 72 hrs by MTT assay; format: cell-based; settings: NCI-H460, 72 h
[5] = Inhibition of ABCG2 in human H460/MX20 cells assessed as potentiation of mitoxantrone induced antiproliferative activity by measuring mitoxantrone IC50 at 10 uM preincubated for 2 hrs followed by mitoxantrone addition measured after 72 hrs by MTT assay (reference value: 6.161 +/- 0.172 microM)
[6] = Inhibition of ABCG2 in human H460/MX20 cells assessed as potentiation of mitoxantrone induced antiproliferative activity by measuring mitoxantrone IC50 at 3 uM preincubated for 2 hrs followed by mitoxantrone addition measured after 72 hrs by MTT assay (reference value: 6.161 +/- 0.172 microM)
[7] = Inhibition of ABCG2 in human H460/MX20 cells assessed as potentiation of mitoxantrone induced antiproliferative activity by measuring mitoxantrone IC50 at 1 uM preincubated for 2 hrs followed by mitoxantrone addition measured after 72 hrs by MTT assay (reference value: 6.161 +/- 0.172 microM)

| SMILES | Ratio IC50 [1] | Ratio IC50 [2] | Ratio IC50 [3] | IC50 [4] [µM] | IC50 (NCI-H460) [µM] | IC50 [5] [µM] | IC50 [6] [µM] | IC50 [7] [µM] |
| --- | --- | --- | --- | --- | --- | --- | --- | --- |
| COc1cccc(-n2nnc(-c3ccccc3NC(=O)c3ccc([N+](=O)[O-])cc3)n2)c1 | 1.43 | 1.8 | 2.72 | > 100 | > 100 | 0.307 |  |  |
| COc1ccc(-n2nnc(-c3ccccc3NC(=O)c3ccc([N+](=O)[O-])cc3)n2)cc1 | 1.76 | 2.49 | 2.73 | 27.4 | 24.7 |  |  |  |
| COc1ccc(C(=O)Nc2ccccc2-c2nnn(-c3ccc(OC)cc3)n2)cc1 | 2.29 | 2.35 | 3.47 | > 100 | > 100 |  |  |  |
| COc1ccc(-n2nnc(-c3ccccc3NC(=O)Nc3ccc([N+](=O)[O-])cc3)n2)cc1 | 1.54 | 2.52 | 3.34 | 28.5 | 21.7 |  |  |  |
| O=C(Nc1ccc([N+](=O)[O-])cc1)Nc1ccccc1C(=O)Nc1ccc(C(F)(F)F)cc1 | 2.12 | 2.81 | 3.31 | > 100 | > 100 |  |  |  |
| COc1cccc(-n2nnc(-c3ccccc3NC(=O)c3ccc(N=[N+]=[N-])cc3)n2)c1 | 5.89 | 6.98 | 7.51 | 21.5 | 20.3 |  |  |  |
| COc1cccc(-n2nnc(-c3ccccc3NC(=O)c3ccccc3[N+](=O)[O-])n2)c1 | 5.12 | 6.14 | 8.74 | 44.7 | 38.9 |  | 1.32 |  |
| COc1cccc(-n2nnc(-c3ccccc3NC(=O)Nc3ccccc3[N+](=O)[O-])n2)c1 | 4.1 | 4.55 | 5.45 | > 100 | > 100 |  |  | 1.172 |
| CCCc1ccc(NC(=O)c2ccccc2NC(=O)c2cccc([N+](=O)[O-])c2)cc1 | 2.38 | 3.38 | 3.65 | > 100 | > 100 | 0.512 | 0.727 | 0.785 |
| COc1ccc(NC(=O)Nc2ccccc2-c2nnn(-c3ccc(OC)cc3)n2)cc1 | 1.56 | 1.78 | 2.06 | 57.4 | 52.5 | 0.355 | 0.382 |  |
| COc1cccc(-n2nnc(-c3ccccc3NC(=O)Nc3ccc(N=C=S)cc3)n2)c1 | 2.56 | 3.1 | 7.05 | > 100 | > 100 | 0.55 |  | 1.515 |
| CCCc1ccc(NC(=O)c2ccccc2NC(=O)c2ccccc2[N+](=O)[O-])cc1 | 7.7 | 9.36 | 11.75 | > 100 | > 100 |  |  |  |
| COc1cccc(-n2nnc(-c3ccccc3NC(=O)c3ccc(NC(C)=O)cc3)n2)c1 | 5.58 | 6.16 | 6.34 | > 100 | > 100 |  |  |  |
| COc1cccc(-n2nnc(-c3ccccc3NC(=O)Nc3ccc(N)cc3)n2)c1 | 1.76 | 2.66 | 3.9 | > 100 | > 100 |  | 0.571 |  |
| CCCc1ccc(NC(=O)c2ccccc2NC(=O)c2ccc(OC)cc2)cc1 | 7.97 | 10 | 13.1 | > 100 | > 100 |  | 2.012 | 2.526 |
| CCCc1ccc(NC(=O)c2ccccc2NC(=O)Nc2ccccc2[N+](=O)[O-])cc1 | 5.21 | 11.92 | 17.03 | > 100 | > 100 |  |  |  |
| COc1cccc(-n2nnc(-c3ccccc3NC(=O)c3ccc(N=C=S)cc3)n2)c1 | 4.43 | 4.88 | 5.68 | 59 | 44.7 |  |  | 1.221 |
| COc1cccc(-n2nnc(-c3ccccc3NC(=O)c3ccc(NC(=O)CBr)cc3)n2)c1 | 1.32 | 2.07 | 2.81 | > 100 | > 100 |  |  |  |
| COc1cccc(-n2nnc(-c3ccccc3NC(=O)Nc3ccc(NC(=O)CBr)cc3)n2)c1 | 2.2 | 2.71 | 3.71 | > 100 | > 100 |  |  |  |
| CCCc1ccc(NC(=O)c2ccccc2NC(=O)Nc2ccc(OC)cc2)cc1 | 4.58 | 10.12 | 15.68 | > 100 | > 100 |  |  |  |
| CCCc1ccc(C(=O)Nc2ccccc2-c2nnn(-c3cccc(OC)c3)n2)cc1 | 0.61 | 0.96 | 1.65 | 40.6 | 27 |  | 0.207 |  |
| COc1cccc(-n2nnc(-c3ccccc3NC(=O)Nc3ccc(NC(C)=O)cc3)n2)c1 | 1.51 | 2.11 | 2.92 | > 100 | > 100 |  | 0.454 |  |
| COc1cccc(-n2nnc(-c3ccccc3NC(=O)Nc3cccc([N+](=O)[O-])c3)n2)c1 |  |  |  | > 100 | > 100 |  |  |  |
| COc1cccc(-n2nnc(-c3ccccc3NC(=O)Nc3ccc(N=[N+]=[N-])cc3)n2)c1 | 3.19 | 3.21 | 4.25 | > 100 | > 100 | 0.685 |  |  |
| CCCc1ccc(NC(=O)c2ccccc2NC(=O)Nc2ccc(Br)cc2)cc1 | 4.43 | 9.87 | 12.35 | > 100 | > 100 |  |  |  |
| COc1cccc(-n2nnc(-c3ccccc3NC(=O)c3cccc([N+](=O)[O-])c3)n2)c1 | 4.03 | 6.47 | 8.38 | 25.4 | 19.9 |  | 1.39 |  |
| COc1ccc2c3c([nH]c2c1)[C@H](C=C(C)C)N1C(=O)[C@@H]2CCCN2C(=O)[C@@H]1C3 [FUMITREMORGIN] | 1.49 | 2.1 | 2.85 |  |  | 0.321 |  |  |
